Reference: patent US8697739B2, “Bicyclic acetyl-CoA carboxylase inhibitors and uses thereof” (Novartis AG, priority 2010, dated 2014)

These compounds were tested against T1, human acetyl-CoA carboxylase 2 (ACC2) (Homo sapiens, UniProt O00763) (assay: Acetyl-CoA carboxylase enzyme assay (malonyl-CoA formation by LC/MS/MS)). Conditions: recombinant human ACC2 (aa 144-2458); read-out: IC50 ACC2.
T1 construct: The cDNA encoding amino acids 144 to 2458 of human acetyl-CoA carboxylase 2; made in house; host or cells: Sf9 insect cells (baculovirus, pFastBac1)
T1 sequence (O00763 144-2458): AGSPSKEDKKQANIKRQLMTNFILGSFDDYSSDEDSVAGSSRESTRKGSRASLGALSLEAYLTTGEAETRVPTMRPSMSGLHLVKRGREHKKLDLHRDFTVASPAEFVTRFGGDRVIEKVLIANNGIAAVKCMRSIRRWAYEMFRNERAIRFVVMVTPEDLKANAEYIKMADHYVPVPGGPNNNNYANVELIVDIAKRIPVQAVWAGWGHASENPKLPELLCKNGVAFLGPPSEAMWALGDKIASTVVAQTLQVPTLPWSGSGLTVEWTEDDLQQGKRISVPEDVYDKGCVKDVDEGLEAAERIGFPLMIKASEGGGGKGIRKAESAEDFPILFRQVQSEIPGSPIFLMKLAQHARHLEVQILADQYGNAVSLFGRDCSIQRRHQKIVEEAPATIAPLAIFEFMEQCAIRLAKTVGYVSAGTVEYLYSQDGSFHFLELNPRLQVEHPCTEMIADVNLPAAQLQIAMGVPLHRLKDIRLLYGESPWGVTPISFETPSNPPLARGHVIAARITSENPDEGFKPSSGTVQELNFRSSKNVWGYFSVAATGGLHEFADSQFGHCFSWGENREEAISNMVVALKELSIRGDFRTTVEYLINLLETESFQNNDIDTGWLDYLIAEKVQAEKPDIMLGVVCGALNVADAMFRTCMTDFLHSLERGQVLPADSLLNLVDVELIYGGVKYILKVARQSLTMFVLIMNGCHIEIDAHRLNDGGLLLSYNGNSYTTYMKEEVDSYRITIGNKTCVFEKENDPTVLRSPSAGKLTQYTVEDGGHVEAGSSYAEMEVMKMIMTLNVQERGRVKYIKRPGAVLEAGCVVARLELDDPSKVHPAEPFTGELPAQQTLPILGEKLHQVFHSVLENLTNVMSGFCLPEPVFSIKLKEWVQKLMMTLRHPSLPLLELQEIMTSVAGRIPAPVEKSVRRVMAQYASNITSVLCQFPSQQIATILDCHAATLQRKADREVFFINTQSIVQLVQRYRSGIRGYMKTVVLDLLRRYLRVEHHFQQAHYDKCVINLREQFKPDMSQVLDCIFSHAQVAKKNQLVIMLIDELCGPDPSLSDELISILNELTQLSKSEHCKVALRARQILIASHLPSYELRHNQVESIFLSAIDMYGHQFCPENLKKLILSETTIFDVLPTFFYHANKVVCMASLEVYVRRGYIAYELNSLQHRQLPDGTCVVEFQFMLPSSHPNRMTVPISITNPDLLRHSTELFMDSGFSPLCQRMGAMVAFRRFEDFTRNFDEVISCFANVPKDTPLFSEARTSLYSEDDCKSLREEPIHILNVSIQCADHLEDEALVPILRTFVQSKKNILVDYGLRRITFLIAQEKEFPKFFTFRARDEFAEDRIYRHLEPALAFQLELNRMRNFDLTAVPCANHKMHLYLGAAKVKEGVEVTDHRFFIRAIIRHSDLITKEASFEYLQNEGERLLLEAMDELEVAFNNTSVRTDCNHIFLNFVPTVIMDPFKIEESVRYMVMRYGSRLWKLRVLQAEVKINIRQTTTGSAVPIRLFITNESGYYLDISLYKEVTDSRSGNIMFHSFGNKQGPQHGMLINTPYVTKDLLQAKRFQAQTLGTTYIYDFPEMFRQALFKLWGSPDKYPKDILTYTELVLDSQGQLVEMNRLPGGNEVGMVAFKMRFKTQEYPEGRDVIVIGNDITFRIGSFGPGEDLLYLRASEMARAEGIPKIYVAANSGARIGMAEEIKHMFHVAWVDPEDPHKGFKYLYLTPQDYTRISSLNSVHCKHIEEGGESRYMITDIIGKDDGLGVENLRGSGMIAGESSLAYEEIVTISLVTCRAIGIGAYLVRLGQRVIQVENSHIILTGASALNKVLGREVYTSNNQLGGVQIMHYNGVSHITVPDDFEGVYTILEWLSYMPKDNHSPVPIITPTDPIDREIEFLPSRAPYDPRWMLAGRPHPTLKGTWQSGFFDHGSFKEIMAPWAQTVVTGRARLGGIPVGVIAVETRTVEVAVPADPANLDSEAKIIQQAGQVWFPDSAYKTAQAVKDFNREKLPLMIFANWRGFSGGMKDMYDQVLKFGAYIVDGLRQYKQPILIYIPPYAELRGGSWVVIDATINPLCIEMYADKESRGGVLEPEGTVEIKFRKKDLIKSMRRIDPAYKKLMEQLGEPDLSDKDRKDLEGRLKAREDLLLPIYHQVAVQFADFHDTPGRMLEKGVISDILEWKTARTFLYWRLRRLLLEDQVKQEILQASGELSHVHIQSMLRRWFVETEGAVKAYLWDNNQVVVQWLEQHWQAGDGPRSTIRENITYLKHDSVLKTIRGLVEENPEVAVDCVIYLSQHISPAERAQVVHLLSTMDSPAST
Format: biochemical
Procedure, shortened: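 Malonyl-CoA formation was read by LC/MS/MS MRM against a [13C3]-malonyl-CoA internal standard, after acetic acid quench. The enzyme was baculovirus/Sf9-expressed human ACC2 residues 144–2458, given 15 minutes room-temperature compound preincubation in HEPES pH 7.5 buffer with MgCl2, citrate and DTT. Substrate solution held 50 μM acetyl-CoA, 120 μM ATP and 2 mM KHCO3.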
`C[C@H]1COCCN1C(=O)[C@H]1CC[C@H](NS(=O)(=O)c2ccc3cc(-c4ccccc4)[nH]c3c2)CC1` [Example 462, N-((1S,4r)-4-((S)-3-methylmorpholine-4-carbonyl)cyclohexyl)-2-phenyl-1H-indole-6-sulfonamide] showed an IC50 of 0.015 µM. `Cc1nc2cc(S(=O)(=O)N[C@H]3CC[C@H](c4nnc(C(C)(C)C)o4)CC3)ccc2[nH]1` [Example 615, N-((1r,4r)-4-(5-tert-butyl-1,3,4-oxadiazol-2-yl)cyclohexyl)-2-methyl-1H-benzo[d]imidazole-5-sulfonamide] showed an IC50 of 11.5 µM. With `CCC(C)NC(=O)[C@H]1CC[C@H](NS(=O)(=O)c2ccc3[nH]c(-c4cccnc4)cc3c2)CC1` (stereo partly drawn) [Example 287, (1r,4R)-N-sec-butyl-4-(2-(pyridin-3-yl)-1H-indole-5-sulfonamido)cyclohexanecarboxamide] the IC50 was 0.196 µM. With `C[C@@H](NC(=O)[C@H]1CC[C@H](NS(=O)(=O)c2ccc3c(c2)N(CC(=O)O)CCC3)CC1)c1ccc(F)cc1` [Example 166, 2-(7-(N-((1R,4r)-4-((R)-1-(4-fluorophenyl)ethylcarbamoyl)cyclohexyl)sulfamoyl)-3,4-dihydroquinolin-1(2H)-yl)acetic acid] the IC50 was 0.91 µM. In the case of `Cn1c(C2CC2)c(C#N)c2ccc(S(=O)(=O)N[C@H]3CC[C@H](C(=O)N4CCCCC4)CC3)cc21` [Example 381, 3-cyano-2-cyclopropyl-1-methyl-N-((1r,4r)-4-(piperidine-1-carbonyl)cyclohexyl)-1H-indole-6-sulfonamide], the IC50 is reported as 0.21 µM. `C[C@@H](NC(=O)[C@H]1CC[C@H](NS(=O)(=O)c2ccc3nc(NCCN(C)C)ccc3c2)CC1)c1ccc(F)cc1` [Example 215, (1r,4R)-4-(2-(2-(dimethylamino)ethylamino)quinoline-6-sulfonamido)-N-((R)-1-(4-fluorophenyl)ethyl)cyclohexanecarboxamide] gave an IC50 of 0.125 µM. `C[C@H]1COCCN1C(=O)[C@H]1CC[C@H](NS(=O)(=O)c2ccc3cc(C4CC4)n(C)c3c2)CC1` [Example 422, 2-cyclopropyl-1-methyl-N-((1S,4r)-4-((S)-3-methylmorpholine-4-carbonyl)cyclohexyl)-1H-indole-6-sulfonamide] gave an IC50 of 0.285 µM. In the case of `C[C@@H](NC(=O)[C@H]1CC[C@H](NS(=O)(=O)c2ccc3cc(-c4ccccc4)n(C)c3c2)CC1)c1ccc(F)cc1` [Example 20, (1r,4R)—N—((R)-1-(4-fluorophenyl)ethyl)-4-(1-methyl-2-phenyl-1H-indole-6-sulfonamido)cyclohexanecarboxamide], the IC50 is reported as < 0.01 µM. With `O=C(NC1CC1)[C@H]1CC[C@H](NS(=O)(=O)c2ccc3[nH]c(-c4ccccc4)nc3c2)CC1` [Example 635, (1r,4r)-N-cyclopropyl-4-(2-phenyl-1H-benzo[d]imidazole-5-sulfonamido)cyclohexanecarboxamide] the IC50 was 0.256 µM. For `Cn1c(-c2ccc(CCC(=O)O)cc2)cc2ccc(S(=O)(=O)N[C@H]3CC[C@H](C(=O)N4CCC[C@H]4c4ccc(F)cc4)CC3)cc21` [Example 393, 3-(4-(6-(N-((1S,4r)-4-((S)-2-(4-fluorophenyl)pyrrolidine-1-carbonyl)cyclohexyl)sulfamoyl)-1-methyl-1H-indol-2-yl)phenyl)propanoic acid], the IC50 was < 0.01 µM. `O=C([C@H]1CC[C@H](NS(=O)(=O)c2cnc3c(c2)NCCN3)CC1)N1CCNCC1c1ccccc1` (some centres unmarked) [Example 186, N-((1r,4r)-4-(2-phenylpiperazine-1-carbonyl)cyclohexyl)-1,2,3,4-tetrahydropyrido[3,2-b]pyrazine-7-sulfonamide] showed an IC50 of 0.245 µM. Work on `O=C(Nc1cccc2ccccc12)[C@H]1CC[C@H](NS(=O)(=O)c2ccc3[nH]c(-c4ccccc4)nc3c2)CC1` [Example 645, (1r,4r)-N-(naphthalen-1-yl)-4-(2-phenyl-1H-benzo[d]imidazole-5-sulfonamido)cyclohexanecarboxamide] yielded an IC50 of 1.06 µM. Work on `CC(C)OC(=O)c1ccc(NS(=O)(=O)c2ccc3[nH]c(Nc4cccc(C#N)c4)nc3c2)cc1` [Example 525, isopropyl 4-(2-(3-cyanophenylamino)-1H-benzo[d]imidazole-5-sulfonamido)benzoate] yielded an IC50 of 0.166 µM. Work on `O=C(N[C@H](CO)c1ccccc1)[C@H]1CC[C@H](NS(=O)(=O)c2ccc3[nH]c(-c4ccccc4)nc3c2)CC1` [Example 579, (1r,4S)-N-((S)-2-hydroxy-1-phenylethyl)-4-(2-phenyl-1H-benzo[d]imidazole-5-sulfonamido)cyclohexanecarboxamide] yielded an IC50 of 0.01 µM. For `Cc1nc2cc(S(=O)(=O)N[C@H]3CC[C@H](c4nnc(C(C)(C)C)o4)CC3)ccc2n1Cc1ccccc1` [Example 657, 1-benzyl-N-((1r,4r)-4-(5-tert-butyl-1,3,4-oxadiazol-2-yl)cyclohexyl)-2-methyl-1H-benzo[d]imidazole-5-sulfonamide], the IC50 was > 35 µM. For `CC(C)(C)OC(=O)N1CCN(C(=O)[C@H]2CC[C@H](NS(=O)(=O)c3cnc4ccccc4c3)CC2)C(c2ccccc2)C1` (some centres unmarked) [Example 60, tert-butyl 3-phenyl-4-((1r,4r)-4-(quinoline-3-sulfonamido)cyclohexanecarbonyl)piperazine-1-carboxylate], the IC50 was 0.131 µM. In the case of `COCCc1ccc(-c2[nH]c3cc(S(=O)(=O)N[C@H]4CC[C@H](C(=O)N5CCC6(CC5)COC6)CC4)ccc3c2Cl)cc1` [Example 485, N-((1r,4r)-4-(2-oxa-7-azaspiro[3.5]nonane-7-carbonyl)cyclohexyl)-3-chloro-2-(4-(2-methoxyethyl)phenyl)-1H-indole-6-sulfonamide], the IC50 is reported as 0.043 µM. `Cn1c(-c2ccccc2)cc2cc(S(=O)(=O)N[C@H]3CC[C@H](C(=O)N[C@H](CC(=O)OC(C)(C)C)c4ccccc4)CC3)ccc21` [Example 94, (R)-tert-butyl 3-((1r,4R)-4-(1-methyl-2-phenyl-1H-indole-5-sulfonamido)cyclohexanecarboxamido)-3-phenylpropanoate] showed an IC50 of 0.075 µM. `CC(C)OC(=O)c1ccc(NS(=O)(=O)c2ccc3[nH]c(Nc4ccc(Cl)cc4)nc3c2)cc1` [Example 529, isopropyl 4-(2-(4-chlorophenylamino)-1H-benzo[d]imidazole-5-sulfonamido)benzoate] was tested, and the IC50 was 0.644 µM. In the case of `CCOC(=O)[C@H]1CCCN1C(=O)[C@H]1CC[C@H](NS(=O)(=O)c2ccc3cc(-c4ccccc4)n(C)c3c2)CC1` [Example 420, (R)-ethyl 1-((1r,4R)-4-(1-methyl-2-phenyl-1H-indole-6-sulfonamido)cyclohexanecarbonyl)pyrrolidine-2-carboxylate], the IC50 is reported as 0.72 µM. In the case of `Cn1c(-c2ccc(CCC(=O)O)cc2)cc2ccc(S(=O)(=O)N[C@H]3CC[C@H](C(=O)N4CCC[C@@H]4C(F)(F)F)CC3)cc21` [Example 397, 3-(4-(1-methyl-6-(N-((1R,4r)-4-((R)-2-(trifluoromethyl)pyrrolidine-1-carbonyl)cyclohexyl)sulfamoyl)-1H-indol-2-yl)phenyl)propanoic acid], the IC50 is reported as < 0.01 µM. Work on `CCOc1ccc2cc(S(=O)(=O)N[C@H]3CC[C@H](C(=O)N[C@H](COC(=O)[C@@H](N)Cc4ccccc4)c4ccccc4)CC3)ccc2n1` [Example 273, (S)-((S)-2-((1r,4S)-4-(2-ethoxyquinoline-6-sulfonamido)cyclohexanecarboxamido)-2-phenylethyl) 2-amino-3-phenylpropanoate] yielded an IC50 of 0.039 µM. In the case of `CC(C)c1nnc(-c2ccc(NS(=O)(=O)c3ccc4[nH]c(Nc5ccccc5)nc4c3)cc2)o1` [Example 601, N-(4-(5-isopropyl-1,3,4-oxadiazol-2-yl)phenyl)-2-(phenylamino)-1H-benzo[d]imidazole-5-sulfonamide], the IC50 is reported as 0.539 µM.
